The record followed here is ChEMBL document CHEMBL3045907, “Discovery and development of pyridalyl” (J Pestic Sci, 2012).

A short description of series [1]: Acute toxicity in Rattus norvegicus (rat) compound administered through inhalation. Conditions: in vivo, inhaled or intranasal. The class given is organism-based.
Series [2] in a line: Acute toxicity in po dosed Rattus norvegicus (rat). Conditions: in vivo. The class given is organism-based.
Series [3] can be described thus: Acute toxicity in Rattus norvegicus (rat) compound administered intradermally. Type of series: organism-based. Conditions: in vivo.
A short description of series [4]: Toxicity in Cyprinidae (carp fish). The class given is ADME, organism-based. The settings on record: in vivo.
Series [5] is described as follows: Octanol-water partition co-efficient, log P of the compound at 20 degC. Type of series: physicochemical.
Series [6] is described as follows: Solubility of the compound in water. Type of series: physicochemical. Conditions: buffer.

Turning to `FC(F)(F)c1ccc(OCCCOc2c(Cl)cc(OCC=C(Cl)Cl)cc2Cl)nc1` [PYRIDALYL], the figures for the LC50 in series [1] and in series [4] were more than 2.01 µg/mL and more than 10 µg/mL, respectively. Also, the LD50 in series [2] was more than 5000 mg/kg; in series [3], more than 2000 mg/kg. For the same compound, the log partition coefficient (logP) in series [5] is 8.1. Besides, the solubility in series [6] stood at 0.15 ppb.

Usually LC50 stands for the concentration lethal to half of the exposed cells or organisms. A lower LC50 goes with greater toxicity. In general, LD50 refers to the dose expected to kill half of the subjects tested. The low end stands for a more toxic substance, the high end for a less toxic substance. The term logP denotes the decadic logarithm of the partition coefficient of the neutral form, usually between octanol and water. A lower logP goes with lower lipophilicity.
